Experimental data reported in a melting point compilation (Tetko et al.; mined from patent text by program, amines drawn as free bases though some values may be those of a salt).

| Compound | melting point [°C] |
| --- | --- |
| CCOC(=O)c1ccccc1N(CC(=O)N(C)c1ccccc1)C(=O)C(F)(F)F | 95 |
| CCCOC1=CC(=O)C(C(=O)OCC)C(c2ccc(C)cc2)C1 (centres undefined) | 106 to 107 |
| N=C(N)Nc1nc(Cl)cc(Cl)n1 | > 360 |
| O=C(Cc1ccc(OCc2cccc(C(=O)O)c2)cc1)NC1(C(=O)O)Cc2ccc(-c3ccc(Cl)cc3)cc2C1 (centres undefined) | 220 to 222 |
| COc1cc(CN2CCN(c3ccc(C(=O)NC4CC4)cc3C)CC2)cc2c1OCC(=O)N2 | 220 to 228 |
| O=C(c1cc(Br)cc(Br)c1O)c1cc(Br)cc(Br)c1O | 179 |
| CC1=C2CCC3C(CCC4(C)C3CCC4(C)O)C2(C)CC(=CO)C1=O (centres undefined) | 182 to 188 |
| COc1cc2c(Nc3ccc(Cl)cc3F)ncnc2cc1OCCCC(=O)N1CCN(C)CC1 | 248 to 250 |
| NC(=O)C1CCC(=O)N1CC#CCN1CCCC1 (centres undefined) | 146 to 148 |
| CSC1=NC(=O)/C(=C/c2ccccc2Nc2c(Cl)ccc(C)c2Cl)S1 | 233 to 236 |
| CN1CC(=O)c2ccc3ccccc3c2S1(=O)=O | 192 to 193 |
| O=C(N[C@H](Cc1ccc(C(F)(F)F)cc1)[C@@H](O)c1ccc(F)cc1)c1ccc2ccccc2c1 (racemic) | 174 to 175 |
| O=C(Cl)C12CC(C(=O)Cl)(C1)C2 | 55 to 57 |
| O=C(Nc1ccccc1)N1CCc2c(cnc3[nH]nc(Br)c23)C1 | 249 to 250 |
| CCCCCCCCCCCCCCCC(=O)NCCCC | 74 to 76 |
| CC1(C)C(=O)Nc2cc3[nH]c(-c4ccnnc4)nc3cc21 | > 360 |
| Cc1c(Cl)ccc(S(=O)(=O)Cl)c1C#N | 69 to 72 |
| Fc1cc(-n2cc(CNC(=S)c3ccccn3)nn2)ccc1N1CCSCC1 | 158 to 160 |
| CCCc1c(OS(=O)(=O)N(C)C)cc2oc3cc(Cl)cn3c(=O)c2c1O | 159 to 160 |
| O=C(CCc1ccccc1)Nc1c(Cl)ccc2nc(N3CCNCC3)ccc12 | 231 to 234 |
| CC(C)(O)C(O)(C(F)(F)F)C(F)(F)F | 48 |
| C=C1CCC(C2OC(=O)NC2=O)CC1 (centres undefined) | 63 to 64 |
| CC(C)Cn1nc(-c2ccccc2)cc(COS(C)(=O)=O)c1=O | 130 |
| CCN(CC)C(=O)c1ccc(OCCCl)cc1 | 80 to 81 |
| COc1cc(COC(=O)CCc2nc(-c3ccc(Cl)cc3)co2)cc(OC)c1OC | 86 to 87 |

| Compound | melting point [°C] |
| --- | --- |
| COc1ccc(N(C)CC2CCOCC2)cc1N | 97 to 99 |
| CCOC(=O)Cc1ccc(CCNC(=O)c2ccc(Cl)cc2)cc1 | 118 to 119 |
| Cc1oc(-c2ccccc2)nc1COc1cc(COc2ccccc2CC(=O)O)on1 | 152 to 153 |
| CC(C)n1nc(-c2c(-c3ccccc3)nn3ccc(OCC(=O)NC4CC4)cc23)ccc1=O | 199 to 200 |
| CN1CCN(C(=O)OC2c3ccccc3C(=O)N2c2ccc3cccnc3n2)CC1 (centres undefined) | 183 |
| CNC(=O)C=C1CSc2c(C(=O)OC(C)C)c(C)cn21 | 173 to 175 |
| CC1=C(c2ccccc2)C(=O)N(C(C)(C)c2cc(Cl)c(F)c(Cl)c2)C1 | 164 to 167 |
| CCCc1cc(-c2ccccc2)ccc1C(=O)O | 108 |
| CN(C)C=C(C#N)C(=O)c1c[nH]c2ccccc12 | 187 to 188 |
| COCCOc1c2ccccc2c(C=O)c2ccccc12 | 87 to 88 |
| Cc1nn(-c2cccnc2)cc1NCC1CC1 | 73 to 75 |
| COC(=O)C(Oc1ccc(Cl)cc1)c1ccc(Oc2ccccc2)cc1 (centres undefined) | 99 to 102 |
| Cc1noc(C)c1C(=O)Nc1ccc(-n2nc(C(F)(F)F)cc2C2CC2)c(F)c1 | 163 to 165 |
| Cc1ccc(S(=O)(=O)OCCN(c2ccc(OC(F)(F)F)cc2)S(=O)(=O)c2ccc(C)cc2)cc1 | 88 |
| C(=Nc1c2c(nc3ccccc13)CCCC2)c1ccccc1 | 168 to 169 |
| CNC(=O)c1ccccc1Nc1nc(Nc2ccc3c(c2)CCCC(=O)N3)ncc1Cl | 283 |
| COc1cc2c(cc1OC)[C@@H](O)[C@H](CN1CCC3(CC1)C(=O)NCN3c1ccccc1)C2 (relative stereo) | 189 to 190 |
| NC(=O)/C=C1\CCc2c(Cl)cc(F)cc21 | 182 to 184 |
| O=C(CCCCCCOc1ccccc1)c1nnc(COCc2ccccc2)o1 | 61 to 63 |
| Cc1cc(Oc2cccc(C(F)(F)F)c2)nn1C(=O)Nc1ccc(Cl)cc1 | 73 to 74 |
| OCCC(c1ccccc1)C(O)(c1ccccc1)c1ccccc1 (centres undefined) | 112 to 113 |
| CCOc1nc2cccc(C(Br)Br)c2c(=O)o1 | 98 to 99 |
| N#CNC(=NCCc1ccccc1Cl)c1cncc(NCc2ccccc2)c1 | 146 |
| O=C(N[C@H]1CCN(C(=O)c2cc(C(F)(F)F)cc(C(F)(F)F)c2)[C@H](Cc2ccc(Cl)cc2)C1)c1ccnc2ccccc12 | 204 to 207 |
